Patent publication US10167262B2, “Herbicidal substituted 3-arylpyrazoles” (FMC CORPORATION, priority 2014, dated 2019)
Where two headings read alike, the source gives them in different places.

What was measured:
Assay type in all cases: in vivo
wild oat (Avena fatua) = assay: Test C postemergence greenhouse test, plant response rating 0-100; conditions: Avena fatua, post-emergence
In short: (§1)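 Potted in peat/vermiculite mix; postemergence application at 1–4 leaves (2–18 cm); greenhouse 13–15 d; visual score 0–100 relative to untreated plants; dash = no test result.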

[1] = system: chickweed (common chickweed, Stellaria media); assay: as above; conditions: Stellaria media, post-emergence
In short: as §1

kochia (Kochia scoparia) = assay: as above; conditions: Bassia scoparia, post-emergence
In short: as §1

[2] = system: morningglory (Ipomoea coccinea); assay: Test C pre-/postemergence greenhouse test, plant response rating 0-100; conditions: Ipomoea; for pest or weed control at 62 g/ha: 62 g ai/ha; for pest or weed control at 125 g/ha: 125 g ai/ha; for pest or weed control at 250 g/ha: 250 g ai/ha; for pest or weed control at 500 g/ha: 500 g ai/ha
In short: (§2)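 Pre-emergence soil and post-emergence foliar sprays were applied simultaneously to seeded loam–sand pots and to 1–4-leaf plants in peat medium; greenhouse holding lasted 13–15 days, then plants were scored visually from 0 (no effect) to 100 (complete control).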

[3] = system: oilseed rape (Brassica napus); assay: as above; conditions: Preemergence
In short: as §2

[4] = system: galium (catchweed bedstraw, Galium aparine); assay: as above; conditions: Galium; for pest or weed control at 62 g/ha: 62 g ai/ha; for pest or weed control at 125 g/ha: 125 g ai/ha; for pest or weed control at 250 g/ha: 250 g ai/ha; for pest or weed control at 500 g/ha: 500 g ai/ha
In short: as §2

[5] = system: large (Lg) crabgrass (Digitaria sanguinalis); assay: Test A pre-/postemergence greenhouse herbicide test, visual injury rating 0-100; conditions: Digitaria sanguinalis, 240 h, 1000 g ai/ha, read-out: Plant response rating (0 to 100 scale), Crabgrass, Large
In short: (§3)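 Formulated in non-phytotoxic solvent with surfactant, compounds were applied pre- and postemergence simultaneously. Soil: loam–sand blend. Visual injury, 0 = no effect to 100 = complete control, ~10 days.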

[6] = system: wheat (Triticum aestivum); assay: as above; conditions: Triticum aestivum, 240 h, 1000 g ai/ha, read-out: Plant response rating (0 to 100 scale), Wheat
In short: as §3

[7] = system: velvetleaf (Abutilon theophrasti); assay: as above; conditions: Abutilon theophrasti, 240 h, 1000 g ai/ha, read-out: Plant response rating (0 to 100 scale), Velvetleaf
In short: as §3

[8] = system: giant foxtail (Setaria faberii); assay: as above; conditions: Setaria faberi, 240 h, 1000 g ai/ha, read-out: Plant response rating (0 to 100 scale), Foxtail, Giant
In short: as §3

[9] = system: pigweed (Amaranthus retroflexus); assay: as above; conditions: Amaranthus retroflexus, 240 h, 1000 g ai/ha, read-out: Plant response rating (0 to 100 scale), Pigweed
In short: as §3

[10] = system: morningglory (Ipomoea spp.); assay: as above; conditions: Ipomoea, pre-emergence, 240 h; Preemergence, 1000 g ai/ha; read-out: Plant response rating (0 to 100 scale), Morningglory
In short: as §3

[11] = system: barnyardgrass (Echinochloa crus-galli); assay: as above; conditions: Echinochloa crus-galli, 240 h, 1000 g ai/ha, read-out: Plant response rating (0 to 100 scale), Barnyardgrass
In short: as §3

corn (Zea mays) = assay: as above; conditions: Zea mays, 240 h, 1000 g ai/ha, read-out: Plant response rating (0 to 100 scale), Corn
In short: as §3

[12] = post-emergence, Postemergence, read-out: Plant response rating (0 to 100), Morningglory
[13] = post-emergence, Postemergence, scale 0 to 100
[14] = pre-emergence, Preemergence, read-out: Plant response rating, Morningglory
[15] = post-emergence, Postemergence, read-out: Plant response rating (0 to 100), Galium
[16] = pre-emergence, Preemergence, read-out: Plant response rating, Galium

C#CCn1cc(C(=O)c2ccccc2)c(-c2cc(Cl)cc(Cl)c2)n1 [Compound 39, [3-(3,5-dichlorophenyl)-1-(2-propyn-1-yl)-1H-pyrazol-4-yl]phenylmethanone]
pest or weed control at 62 g/ha (wild oat (Avena fatua); 62 g ai/ha): 0%
pest or weed control at 125 g/ha (wild oat (Avena fatua); 125 g ai/ha): 0%
pest or weed control at 250 g/ha (wild oat (Avena fatua); 250 g ai/ha, scale 0 to 100): 0%
pest or weed control at 500 g/ha (wild oat (Avena fatua); 500 g ai/ha, scale 0 to 100): 5%
pest or weed control at 62 g/ha ([1]; 62 g ai/ha): 98%
pest or weed control at 125 g/ha ([1]; 125 g ai/ha): 98%
pest or weed control at 250 g/ha ([1]; 250 g ai/ha, scale 0 to 100): 100%
pest or weed control at 500 g/ha ([1]; 500 g ai/ha, scale 0 to 100): 100%
pest or weed control at 62 g/ha (kochia (Kochia scoparia); 62 g ai/ha): 15%
pest or weed control at 125 g/ha (kochia (Kochia scoparia); 125 g ai/ha): 40%
pest or weed control at 250 g/ha (kochia (Kochia scoparia); 250 g ai/ha, scale 0 to 100): 55%
pest or weed control at 500 g/ha (kochia (Kochia scoparia); 500 g ai/ha, scale 0 to 100): 80%
pest or weed control at 62 g/ha [2, 12]: 0%
pest or weed control at 125 g/ha [2, 12]: 0%
pest or weed control at 250 g/ha [2, 13]: 10%
pest or weed control at 500 g/ha [2, 13]: 10%
pest or weed control at 62 g/ha [2, 14]: 20%
pest or weed control at 125 g/ha [2, 14]: 20%
pest or weed control at 250 g/ha ([2]; pre-emergence, Preemergence): 20%
pest or weed control at 500 g/ha ([2]; pre-emergence, Preemergence): 20%
Plant response rating, Oilseed Rape ([3]; 62 g ai/ha): 0
Plant response rating, Oilseed Rape ([3]; 125 g ai/ha): 30
Plant response rating, Oilseed Rape ([3]; 250 g ai/ha): 50
Plant response rating, Oilseed Rape ([3]; 500 g ai/ha): 80
pest or weed control at 62 g/ha [4, 15]: 0%
pest or weed control at 125 g/ha [4, 15]: 0%
pest or weed control at 250 g/ha [4, 13]: 0%
pest or weed control at 500 g/ha [4, 13]: 0%
pest or weed control at 62 g/ha [4, 16]: 0%
pest or weed control at 125 g/ha [4, 16]: 0%
pest or weed control at 250 g/ha ([4]; pre-emergence, Preemergence): 5%
pest or weed control at 500 g/ha ([4]; pre-emergence, Preemergence): 80%
pest or weed control at 1000 g/ha ([5]; post-emergence, Postemergence): 0%
pest or weed control at 1000 g/ha ([5]; pre-emergence, Preemergence): 0%
plant injury at 1000 g/ha ([6]; post-emergence, Postemergence): 0%
plant injury at 1000 g/ha ([6]; pre-emergence, Preemergence): 0%
pest or weed control at 1000 g/ha ([7]; post-emergence, Postemergence): 100%
pest or weed control at 1000 g/ha ([7]; pre-emergence, Preemergence): 100%
pest or weed control at 1000 g/ha ([8]; post-emergence, Postemergence): 0%
pest or weed control at 1000 g/ha ([8]; pre-emergence, Preemergence): 0%
pest or weed control at 1000 g/ha ([9]; post-emergence, Postemergence): 100%
pest or weed control at 1000 g/ha ([9]; pre-emergence, Preemergence): 100%
pest or weed control at 1000 g/ha [10]: 0%
pest or weed control at 1000 g/ha ([11]; post-emergence, Postemergence): 0%
pest or weed control at 1000 g/ha ([11]; pre-emergence, Preemergence): 0%
plant injury at 1000 g/ha (corn (Zea mays); post-emergence, Postemergence): 0%
plant injury at 1000 g/ha (corn (Zea mays); pre-emergence, Preemergence): 0%
